The text below walks through data of US20220142958A1, “MEDICINAL COMPOSITION HAVING EXCELLENT STABILITY” (EA Pharma Co., Ltd., priority 2019, published 2022).

The test system of one series is serum iPTH concentration. The series is described as follows: Serum iPTH concentration in bilaterally nephrectomized rats after single intravenous administration. The series is classed as in vivo, rat. From the text:
After quarantine and acclimatization periods of 6 days, fifty-one rats (Crl: CD (SD), male) aged 7 weeks were fed a 100% sucrose diet ad libitum from four days before the surgery. On the day of the surgery, skin incisions were made on the back at the sites of the right and left kidneys under isoflurane anesthesia and the renal capsules were removed to ligate the renal arteries and veins and the ureters using threads before removing the right and left kidneys. A penicillin solution was given upon suturing, and 5 mL of physiological saline was intraperitoneally administered before returning the rats into the breeding cages.
On the day of administering the test substance, for example, a day after the bilaterally nephrectomy, approximately 100 μL of blood was collected from the tail vein without anesthesia using a capillary tube, which was centrifuged in a high speed refrigerated microcentrifuge (10,000 rpm, 5 min, 4° C.) to separate the serum. Thereafter, the serum Ca concentration was measured with a dri-chemanalyzer (model number: FUJI DRI-CHEM 7000, manufacturer: FUJI FILM Medical Co., Ltd.) to select individuals with a serum Ca concentration of 8.0 mg/dL or more and less than 14.0 mg/dL.
On a day after the bilaterally nephrectomy, the given doses were calculated based on the weight of the selected animals on that day. Group 1 was given a medium (physiological saline), Groups 2, 3 and 4 were given the Compound A1 solution (0.3, 3 and 30 mg/mL, respectively), and Groups 5, 6, 7 and 8 (5 rats per group) were given the comparative compound (0.3, 1, 3 and 10 mg/mL, respectively), each given a single dose of 1 ml/kg from the tail vein. Prior to the administration (0 hours), and 24 and 48 hours after the administration, approximately 300 μL of blood was collected without anesthesia from the tail vein using capillary tubes for obtaining the serum. The blood for obtaining the serum was left to stand at room temperature, and centrifuged in a high speed refrigerated microcentrifuge (10,000 rpm, 5 min, 4° C.) within a period of 30 minutes to 2 hours after the blood collection to collect the serum.
Thereafter, the serum Ca was analyzed with COBAS analyzer (Model number: COBAS INTEGRA 400 plus, manufacturer: Roche Diagnostics K.K.), and the remaining serum was stored in an ultra-low freezer (temperature set to −80±15° C.) until the day of iPTH measurement. On the day of iPTH measurement, the serum was melted at room temperature for measurement.
A 30 mg/ml Compound A1 solution ([…] of Compound A1 dissolved in 10 ml of physiological saline) was diluted with physiological saline to prepare 0.3 mg/ml and […] Compound A1 solutions.
149 mg of etelcalcetide (Ac-c(C) arrrar-NH2) TFA salt (WO 2011/014707 A) was prepared to have pH of 6 to 8 with 7 ml of physiological saline and a 0.5N aqueous NaOH solution, and physiological saline was further added thereto to make 10 ml. The prepared 10 mg/ml comparative compound solution was diluted with physiological saline to obtain 0.3 mg/ml and 1 mg/ml comparative compound solutions.

The subject of another series is serum iPTH. The series is described as follows: Estimation of EC50, PK and clinically effective dose in patients with renal failure. More on the design: species or system human. From the text:
EC50 value in patient with renal failure was estimated based on the calculated EC50 value in healthy adults and the results from the same analysis in normal rats and adenine-treated rat models (pathological rat models). […] Since the difference in the EC50 value between rats in normal state and pathological state is presumed to be caused by the changes in PK that are considered to greatly vary between normal state and pathological state, similar tendency is expected in human as well.
The result from PK fitting, and the contribution rate of renal elimination of the drug (3.2%) calculated using PK-sim (registered trademark) were used to simulate PK prediction in the patients with renal failure. […] As a result, administration of a dose of 0.06 mg/man was estimated to maintain a concentration higher than 1.4 ng/mL for 72 hours (FIG. 2-8).

The test system of series [1] is healthy Japanese male adults. The series is described as follows: Phase I clinical trial (P1), single intravenous dose. The series is classed as in vivo, human. As for the experimental part: Thirty-two healthy Japanese male adults were given a single intravenous dose of the test drug (Compound A1) at 0.01 mg, 0.1 mg, 1.0 mg or 2.5 mg in a fasted state to study the pharmacokinetics, pharmacodynamics and safety by a double-blind test using a placebo as a control. Here, the trial drug was administered by diluting a required dose taken from the Compound A1 vial formulation prepared as follows with sterilized water for injection, and filling a syringe with the resultant in accordance with the dose to be administered.
A vial formulation encapsulating 100 mg of Compound A1 in terms of a dehydrate, and sodium chloride, disodium hydrogen phosphate dodecahydrate, and sodium dihydrogen phosphate dihydrate as additives in 10 ml of sterilized water for injection

The mark [2] stands for this setting: single intravenous doses of 0.01, 0.1, 1.0 and 2.5 mg.

The structures appear in SMILES notation.

Consider `Cc1c(Cl)cc(S(=O)(=O)[O-])cc1NC(=O)NC[C@H](N)C(=O)O.[Na+]` [Compound A1, sodium 3-{[(2S)-2-amino-2-carboxyethyl]carbamoylamino}-5-chloro-4-methylbenzenesulfonate], for which the mean serum iPTH concentration with serum iPTH concentration (0.3 mg/kg single i.v., 24 hours after the administration) was determined as 140 pg/mL; in the series with serum iPTH concentration (0.3 mg/kg single i.v., 48 hours after the administration), 338 pg/mL; in the series with serum iPTH concentration (3 mg/kg single i.v., 24 hours after the administration), 138 pg/mL; with serum iPTH concentration (3 mg/kg single i.v., 48 hours after the administration), 280 pg/mL; in the series with serum iPTH concentration (30 mg/kg single i.v., 24 hours after the administration) it was 118 pg/mL; with serum iPTH concentration (30 mg/kg single i.v., 48 hours after the administration), 245 pg/mL. Also, the EC50 with serum iPTH concentration (Rattus norvegicus, iv, plasma concentration, rats, read-out: 50% effective concentration, EC50 value, for decreasing the serum iPTH concentration) was determined as 0.075 µg/mL. In the series with serum iPTH concentration (logistic curve fitting, 48 hours after the administration vs given dose), the “lower limit value of the serum iPTH concentration (simulated)” value was 203.0 pg/mL. Besides, the “decrease of serum iPTH and Ca concentrations” value in the series on serum iPTH concentration (renal failure rat models, during 48 hours after the administration, relation to dose) is reported as “sufficiently decreased during the 48 hours after the administration but the decreases were gradual with respect to the increase in the dose”. In the series on serum iPTH (PK simulation), the “dose estimated to maintain a concentration higher than 1.4 ng/mL for 72 hours” value is 0.06 mg/man. In the series on serum iPTH (scaling factor applied to human), the “EC50 (estimated)” value is greater than 0.0014 µg/mL. In addition, the “serum iPTH concentration compared to that before the administration” value in series [1] (0.01 mg and higher dose groups) was “decreased”. Also, the “safety (side effects)” value in series [1] (1.0 mg and higher dose groups) is “non-severe and mild side effects such as vomiting”. Moreover, the “duration of decreased serum iPTH concentration” value in series [1] (relation to given dose) was “extended with the increase in the given dose”. The “form excreted into the urine” value in series [1] (single intravenous doses) was “mostly as unchanged substances”. Also, the “main elimination pathway of the unchanged substance” value in series [1] (single intravenous doses) was “renal excretion”. In series [1] (setting [2]), the “elimination from the plasma” value is listed as “rapidly eliminated”. The “form present in the plasma” value in series [1] (setting [2]) is listed as “generally unchanged substances”.
